Measured values as given in patent publication US5668137A, “N-heterocyclic sulfonamides having endothelin receptor activity” (Zeneca Ltd., priority 1995, dated 1997).

Test system: Human ETA or ETB receptors
Assay: Test A: inhibition of [125I]-Endothelin-1 binding to MEL cell membranes expressing recombinant receptor
Conditions: inhibition of 30 pM [125I]-Endothelin-1 binding, 180 minutes at 30° C., receptor sub-type (ETA or ETB) not stated
Description: The endothelin receptor antagonist activity of compounds of formula I may be assessed in vitro by their ability to inhibit binding of [^125 ]-Endothelin-1 to its receptors. Human ETA or ETB receptors (sub-types of the endothelin receptor) were expressed in Mouse Erythroleukemic Cells (MEL cells) by using standard molecular techniques (for example, as described by Sambrook J., Fritsch E. F. & Maniatis T. (1989) Molecular Cloning: A Laboratory Manual, 2nd Edition, Cold Spring Harbor Press, USA). cDNA sequences encoding the human ETA, and ETB receptor (Hosoda K. et al (1991), FEBS Lett., 287, 23-26 and Sakamoto A. et al, (1991), Biochem. Biophys Res. Comm., 178, 656-663) are subcloned into pBluescript vector followed by insertion into the MEL cell expression vector pEV as described by Needham et al (1992), Nuc. Acids Res., 20, 997-1003. […]
[^125 I]-Endothelin-1 binding to MEL cell membranes was measured in incubation buffer containing 50 mM Tris HCl, 1 mM CaCl2, 0.05% polyoxyethylenesorbitan monolaurate, 0.1% Bovine Serum Albumin (BSA), 0.02% sodium azide pH 7.4 at 30° C. after 180 minutes incubation. […] Nonspecific binding was measured in the presence of 100 nM unlabelled Endothelin-1. […] The filter discs were punched out and counted in a gamma counter. Compounds are tested in triplicate over a range of concentrations and IC50 (or pIC50) values calculated.

SMILES: COc1nc(C)cnc1NS(=O)(=O)c1ccccc1-c1ccc(CC(C)C(=O)O)cc1 (stereo not shown) [Example 1, 4'-(2-carboxypropyl)-N-(3-methoxy-5-methylpyrazin-2-yl)-2-biphenylsulphonamide]
- pIC50 in Test A: 8.3
